Patent US6706664B1, “Benzoxazole compounds, process for the preparation thereof and herbicides” (UBE Industries, Ltd., priority 1999, dated 2004)

Key:
Assay in all cases: Soil treatment test for upland field
Parameters in all cases: key: 0: normal development; 1: Less damaged; 2: Slightly damaged; 3: Moderately damaged; 4: Severely damaged; 5: All killed
Settings in all cases: 500 g/ha, glass house 25° C., 3 weeks
common lambsquartes = type: in vivo, Chenopodium album
Source text: (§1) (0: normal development, 1: Less damaged, 2: Slightly damaged, 3: Moderately damaged, 4: Severely damaged, 5: All killed).
(§2) Wagner pots, each having an area of 1/5000 are, were packed with Ube soil (alluvial soil), and then each seed of corn, soybean, cotton, wheat, solgum, sugar beat, Large crabgrass, barnyardgrass, green foxtail, blackgrass, annual bluegrass, common lambsquartes, livid amaranth and velvetleaf were planted and covered with soil.
(§3) Each wettable powder of the desired compounds (I) shown in Table 1 prepared in accordance with Example 2 was diluted with water containing a surfactant (0.05%) and uniformly sprayed on the surface of each soil so that an effective concentration of the compound (I) in each herbicide became 500 g/ha. These plants were controlled in a glass house at an average temperature of 25° C. for 3 weeks, and then herbicidal effects thereof were investigated.
(§4) The herbicidal effects were evaluated according to the evaluation method described in the above (1).

green foxtail = type: in vivo, Setaria viridis
Source text: as §1, §2, §3, §4

velvetleaf = type: in vivo, Abutilon theophrasti
Source text: as §1, §2, §3, §4

Large crabgrass = type: in vivo, Digitaria adscendens
Source text: as §1, §2, §3, §4

annual bluegrass = type: in vivo, Poa annua
Source text: as §1, §2, §3, §4

livid amaranth = type: in vivo, Amaranthus lividus
Source text: as §1, §2, §3, §4

soybean = type: in vivo
Source text: as §1, §2, §3, §4

wheat = type: in vivo
Source text: as §1, §2, §3, §4

corn = type: in vivo
Source text: as §1, §2, §3, §4

solgum = type: in vivo
Source text: as §1, §2, §3, §4

sugar beat = type: in vivo
Source text: as §1, §2, §3, §4

barnyardgrass = type: in vivo, Echinochloa crusgalli
Source text: as §1, §2, §3, §4

cotton = type: in vivo
Source text: as §1, §2, §3, §4

blackgrass = type: in vivo, Alopecurus aegualis
Source text: as §1, §2, §3, §4

Compound	Effects Common lambsquarters (common lambsquartes)	Effects Green foxtail (green foxtail)	Effects Velvetleaf (velvetleaf)	Effects Large crabgrass (Large crabgrass)	Effects Annual bluegrass (annual bluegrass)	Effects Livid amaranth (livid amaranth)	Effects Soybean (soybean)	Effects Wheat (wheat)	Effects Corn (corn)	Effects Solgum (solgum)	Effects Sugar beat (sugar beat)	Effects Barnyardgrass (barnyardgrass)	Effects Cotton (cotton)	Effects Blackgrass (blackgrass)
CCC(Oc1cccc(C(F)(F)F)c1)c1nc2ccc(C(F)(F)F)cc2o1 (centres unmarked) [Compound 94]	1	4	0	5	1	5	0	0	0	0	2	3		
CCC(Oc1ccc(F)c(C(F)(F)F)c1)c1nc2cc(S(C)(=O)=O)ccc2o1 (centres unmarked) [Compound 215]	4	4	5	5	3	5	0	0	0	0	5		1	
CCC(Oc1cccc(C(F)(F)F)c1)c1nc2cc(S(C)(=O)=O)ccc2o1 (centres unmarked) [Compound 216]	5	5	3	4	2	5	0	0	0	0	5	3	0	
CCC(Oc1cccc(C#N)c1)c1nc2cc(S(C)(=O)=O)ccc2o1 (centres unmarked) [Compound 507]	5	3				5	0	0	0	0	0		0	
CCCC(Oc1cccc(C#N)c1)c1nc2cc(S(C)(=O)=O)ccc2o1 (centres unmarked) [Compound 508]	3	5	3	4	2	5	0	0	0	0	4		0	
CCC(Oc1ccc(F)c(C(F)(F)F)c1)c1nc2cc(S(C)(=O)=O)c(C)cc2o1 (centres unmarked) [Compound 487]	4	3	3	5	4	5	0	0	0	0	5	2	0	
CCC(Oc1ccc(F)c(C(F)(F)F)c1)c1nc2cc(Cl)c([N+](=O)[O-])cc2o1 (centres unmarked) [Compound 334, 1-(5-chloro-6-nitrobenzoxazol-2-yl)-1-(4-fluoro-3-(trifluoromethyl)phenoxy)propane]	2	5		5	4	5	0	2	0	1	3	3	1	4
CCC(Oc1cccc(C(F)(F)F)c1)c1nc2cc(I)ccc2o1 (centres unmarked) [Compound 172]		5		5	3	5	0	0	0	0	0		0	1
CCC(Oc1cccc(C#N)c1)c1nc2cc(Cl)c(C)cc2o1 (centres unmarked) [Compound 481]	2	4	3	5	2	4	0	0	0	0	3		0	
CCCC(Oc1cccc(C#N)c1)c1nc2cc(Cl)c(C)cc2o1 (centres unmarked) [Compound 484]	5	5	5	5	5	5	0	0	1	0	5		0	
CCC(Oc1ccc(Cl)c(C(F)(F)F)c1)c1nc2cc([N+](=O)[O-])ccc2o1 (centres unmarked) [Compound 432]	3	5	2	5	5	5	0	0	0	2	5	4	0	3
CCC(Oc1ccc(F)c(C(F)(F)F)c1)c1nc2ccc([N+](=O)[O-])cc2o1 (centres unmarked) [Compound 39]	3	4		4	4	5	0	0	0	0	2		1	
CCC(Oc1ccc(Cl)c(C#N)c1)c1nc2cc(S(C)(=O)=O)ccc2o1 (centres unmarked) [Compound 509]	5	3	3	2		5	0	0	0	0	5		0	
